We go through 18 compounds from patent US20250049806A1, “PHARMACEUTICAL COMPOSITION FOR PROVIDING TREATMENT FOR OR PREVENTING ALPORT SYNDROME” (UBE Corporation, priority 2021, published 2025).

A value given as a limit tells only on which side of the number the result lay.

The series can be described thus: Transcellular transport test using Caco2 cell. The series is classed as in vitro ADME. As to conditions: human, Caco-2, apical-to-basolateral (A-to-B), pH=7.4, 10 µM compound. On the procedure: Caco2 cells (purchased from ATCC) were cultured in DMEM medium (Thermo Fisher Scientific, Inc., 11965) containing 10% FBS (Thermo Fisher Scientific, Inc., 10082) and 1% penicillin/streptomycin/amphotericin B (Thermo Fisher Scientific, Inc., 15240). A transcellular transport test was carried out in accordance with MultiScreen Caco2 Drug Transport Assembly in a 96-well system (Application Note AN1727EN, MultiScreen Caco-2 Assay System, Merck) by partially modifying it. The Caco2 cells were inoculated at a cell density of 4×10^4 cells/well onto a micropore polycarbonate insert of a 96-well plate (Merck, Millcell-96 culture insert plate 0.4 μm pore size, well membrane area=0.11 cm^2, PSHT004S5) and cultured for 20 to 22 days, and the resulting monolayer was used in the transcellular transport test. The medium of the inoculated cells was replaced with a fresh one every 3 to 4 days.
Apical-to-basolateral (A-to-B) transport in the Caco2 cell monolayer membrane was performed by using HBSS (Thermo Fisher Scientific, Inc., 14025) medium (pH=7.4) containing 20 mM HEPES (Thermo Fisher Scientific, Inc., 15630), and adding HEPES-containing HBSS medium containing 10 µM compound (a 10 mM solution of the compound in DMSO was added at a 1000-fold dilution; final DMSO concentration: 0.1%) at 75 μL/well to the apical side and HEPES-containing HBSS medium supplemented with no compound at 250 μL/well to the basolateral side, followed by culture at 37° C. for 90 minutes. After culture, a 100 μL aliquot was collected from the basolateral side, and the concentration of a permeated compound was measured by LC-MS/MS under measurement conditions mentioned later. Papp (apparent permeability; cm/sec) was calculated from the determined concentration. Papp was determined according to the expression given below by calculating the slope (dA/dt; nmol/sec) of a straight line drawn between two points 0 minutes and zero amount of the compound in a graph plotted with an assay time (90 min) on the abscissa against the amount of the compound in the solution on the permeated side on the ordinate. As for an assay concentration, the concentration in the compound in the HEPES-containing HBSS medium containing the added compound was measured by UV-HPLC under measurement conditions mentioned later.
C0: assay concentration, S: plate membrane area=0.11 cm^2
• LC: LC20 or LC30 HPLC system manufactured by Shimadzu Corp. • Column: Phenomenex Kinetex C18 (50 mm×2.1 mm, 2.6 μm) • Column temperature: 40° C. • Flow rate: 0.3 mL/min • Mobile phase A: 0.1% aqueous formic acid solution • Mobile phase B: 0.1% formic acid, 50% acetonitrile/methanol mixed solution • Gradient: 0-2 min; A/B=90/10 to 10/90, 2-3 min; A/B=10/90, 3-3.01 min; A/B=10/90 to 90/10 • MS: Q-Trap3200 manufactured by AB Sciex Pte. Ltd. • Ionization: ESI • Mode: Positive
• LC: LC20 or LC30 HPLC system manufactured by Shimadzu Corp. • Column: Phenomenex Kinetex C18 (100 mm×2.1 mm, 2.6 μm) • Column temperature: 40° C. • Flow rate: 0.25 mL/min • Mobile phase A: 0.1% aqueous formic acid solution • Mobile phase B: 0.1% formic acid, 50% acetonitrile/methanol mixed solution • Gradient: 0-3 min; A/B=90/10, 3-11 min; A/B=90/10 to 5/95, 11-15 min; A/B=5/95, 15-15.1 min; A/B=5/95 to 90/10 • UV detector: photodiode array detector
A: Papp>1×10^−6 (cm/sec), B: 1×10^−6 (cm/sec)≥Papp>5×10^−7 (cm/sec), C: 5×10^−7 (cm/sec)≥Papp>1×10^−7 (cm/sec), or D: Papp≤1×10^−7 (cm/sec).
Turning to `O=C(O)C[C@H](NC(=O)CNC(=O)c1cc(NC2=NCC(F)CN2)c2cn[nH]c2c1)c1cc(C(F)(F)F)ccc1F` (stereo partly drawn) [11-(b), (3S)-3-(2-(4-((5-fluoro-1,4,5,6-tetrahydropyrimidin-2-yl)amino)-1H-indazole-6-carboxamido)acetamido)-3-(2-fluoro-5-(trifluoromethyl)phenyl)propanoic acid], the Papp A→B at 90 min, 10 µM is > 1 ×10⁻⁶ cm/s. With `O=C(O)C[C@H](NC(=O)CNC(=O)c1cc(NC2=NCC(F)CN2)c2cn[nH]c2c1)c1cc(C(F)(F)F)ccc1Cl` (stereo partly drawn) [12-(b), (3S)-3-(2-chloro-5-(trifluoromethyl)phenyl)-3-(2-(4-((5-fluoro-1,4,5,6-tetrahydropyrimidin-2-yl)amino)-1H-indazole-6-carboxamido)acetamido)propanoic acid] the figure was > 1 ×10⁻⁶ cm/s; with `O=C(O)C[C@H](NC(=O)CNC(=O)c1cc(NC2=NCC(F)CN2)c2cn[nH]c2c1)c1ccc(F)c(C(F)(F)F)c1` (stereo partly drawn) [13-(b), (3S)-3-(2-(4-((5-fluoro-1,4,5,6-tetrahydropyrimidin-2-yl)amino)-1H-indazole-6-carboxamido)acetamido)-3-(4-fluoro-3-(trifluoromethyl)phenyl)propanoic acid], > 1 ×10⁻⁶ cm/s; with `Cc1ccc([C@H](CC(=O)O)NC(=O)CNC(=O)c2cc(NC3=NCC(F)CN3)c3cn[nH]c3c2)cc1C(F)(F)F` (stereo partly drawn) [14-(b), (3S)-3-(2-(4-((5-fluoro-1,4,5,6-tetrahydropyrimidin-2-yl)amino)-1H-indazole-6-carboxamido)acetamido)-3-(4-methyl-3-(trifluoromethyl)phenyl)propanoic acid], > 1 ×10⁻⁶ cm/s. Turning to `O=C(O)C[C@H](NC(=O)CNC(=O)c1cc(NC2=NCC(F)CN2)c2cn[nH]c2c1)c1cc(Cl)c(F)c(C(F)(F)F)c1` (stereo partly drawn) [15-(b), (3S)-3-(3-chloro-4-fluoro-5-(trifluoromethyl)phenyl)-3-(2-(4-((5-fluoro-1,4,5,6-tetrahydropyrimidin-2-yl)amino)-1H-indazole-6-carboxamido)acetamido)propanoic acid], the Papp A→B at 90 min, 10 µM was > 1 ×10⁻⁶ cm/s. For the compound `COc1ccc([C@H](CC(=O)O)NC(=O)CNC(=O)c2cc(NC3=NCC(F)CN3)c3cn[nH]c3c2)cc1Br` (stereo partly drawn) [16-(b), (3S)-3-(3-bromo-4-methoxyphenyl)-3-(2-(4-((5-fluoro-1,4,5,6-tetrahydropyrimidin-2-yl)amino)-1H-indazole-6-carboxamido)acetamido)propanoic acid], the Papp A→B at 90 min, 10 µM was > 1 ×10⁻⁶ cm/s. With `O=C(O)C[C@H](NC(=O)CNC(=O)c1cc(NC2=NCC(F)CN2)c2cn[nH]c2c1)c1cc(Cl)cc(Cl)c1` (stereo partly drawn) [17-(b), (3S)-3-(3,5-dichlorophenyl)-3-(2-(4-((5-fluoro-1,4,5,6-tetrahydropyrimidin-2-yl)amino)-1H-indazole-6-carboxamido)acetamido)propanoic acid] the figure was > 1 ×10⁻⁶ cm/s; with `O=C(O)C[C@H](NC(=O)CNC(=O)c1cc(NC2=NCC(F)CN2)c2cn[nH]c2c1)c1cc(Cl)cc(Br)c1` (stereo partly drawn) [18-(b), (3S)-3-(3-bromo-5-chlorophenyl)-3-(2-(4-((5-fluoro-1,4,5,6-tetrahydropyrimidin-2-yl)amino)-1H-indazole-6-carboxamido)acetamido)propanoic acid], > 1 ×10⁻⁶ cm/s; with `O=C(O)C[C@H](NC(=O)CNC(=O)c1cc(NC2=NCC(F)CN2)c2cn[nH]c2c1)c1cc(Br)cc(Br)c1` (stereo partly drawn) [19-(b), (3S)-3-(3,5-dibromophenyl)-3-(2-(4-((5-fluoro-1,4,5,6-tetrahydropyrimidin-2-yl)amino)-1H-indazole-6-carboxamido)acetamido)propanoic acid], > 1 ×10⁻⁶ cm/s. With `O=C(O)C[C@H](NC(=O)CNC(=O)c1cc(NC2=NCC(F)CN2)c2cn[nH]c2c1)c1cc(Br)cc(I)c1` (stereo partly drawn) [20-(b), (3S)-3-(3-bromo-5-iodophenyl)-3-(2-(4-((5-fluoro-1,4,5,6-tetrahydropyrimidin-2-yl)amino)-1H-indazole-6-carboxamido)acetamido)propanoic acid] the figure was > 1 ×10⁻⁶ cm/s; with `O=C(O)C[C@H](NC(=O)CNC(=O)c1cc(NC2=NCC(F)CN2)c2cn[nH]c2c1)c1cc(Cl)cc(I)c1` (stereo partly drawn) [21-(b), (3S)-3-(3-chloro-5-iodophenyl)-3-(2-(4-((5-fluoro-1,4,5,6-tetrahydropyrimidin-2-yl)amino)-1H-indazole-6-carboxamido)acetamido)propanoic acid], > 1 ×10⁻⁶ cm/s; with `O=C(O)C[C@H](NC(=O)CNC(=O)c1cc(NC2=NCC(F)CN2)c2cn[nH]c2c1)c1cc(Cl)ccc1F` (stereo partly drawn) [22-(b), (3S)-3-(5-chloro-2-fluorophenyl)-3-(2-(4-((5-fluoro-1,4,5,6-tetrahydropyrimidin-2-yl)amino)-1H-indazole-6-carboxamido)acetamido)propanoic acid], > 1 ×10⁻⁶ cm/s. The same measure for `O=C(O)C[C@H](NC(=O)CNC(=O)c1cc(NC2=NCC(F)CN2)c2cn[nH]c2c1)c1cc(Br)ccc1F` (stereo partly drawn) [23-(b), (3S)-3-(5-bromo-2-fluorophenyl)-3-(2-(4-((5-fluoro-1,4,5,6-tetrahydropyrimidin-2-yl)amino)-1H-indazole-6-carboxamido)acetamido)propanoic acid]: > 1 ×10⁻⁶ cm/s; for `O=C(O)C[C@H](NC(=O)CNC(=O)c1cc(NC2=NCC(F)CN2)c2cn[nH]c2c1)c1cc(OC(F)F)cc(C(F)(F)F)c1` (stereo partly drawn) [24-(b), (3S)-3-(3-(difluoromethoxy)-5-(trifluoromethyl)phenyl)-3-(2-(4-((5-fluoro-1,4,5,6-tetrahydropyrimidin-2-yl)amino)-1H-indazole-6-carboxamido)acetamido)propanoic acid]: 0.5 to 1 ×10⁻⁶ cm/s; for `O=C(O)C[C@H](NC(=O)CNC(=O)c1cc(NC2=NCC(F)CN2)c2cn[nH]c2c1)c1cc(Cl)cc(OC(F)F)c1` (stereo partly drawn) [25-(b), (3S)-3-(3-chloro-5-(difluoromethoxy)phenyl)-3-(2-(4-((5-fluoro-1,4,5,6-tetrahydropyrimidin-2-yl)amino)-1H-indazole-6-carboxamido)acetamido)propanoic acid]: > 1 ×10⁻⁶ cm/s. Consider `O=C(O)C[C@H](NC(=O)CNC(=O)c1cc(NC2=NCC(F)CN2)c2cn[nH]c2c1)c1cc(Br)cc(OC(F)F)c1` (stereo partly drawn) [26-(b), (3S)-3-(3-bromo-5-(difluoromethoxy)phenyl)-3-(2-(4-((5-fluoro-1,4,5,6-tetrahydropyrimidin-2-yl)amino)-1H-indazole-6-carboxamido)acetamido)propanoic acid], for which the Papp A→B at 90 min, 10 µM was > 1 ×10⁻⁶ cm/s.

Turning to `O=C(O)C[C@H](NC(=O)CNC(=O)c1cc(NC2=NCC(F)CN2)c2cn[nH]c2c1)c1ccc(F)c(OC(F)F)c1` (stereo partly drawn) [27-(b), (3S)-3-(3-(difluoromethoxy)-4-fluorophenyl)-3-(2-(4-((5-fluoro-1,4,5,6-tetrahydropyrimidin-2-yl)amino)-1H-indazole-6-carboxamido)acetamido)propanoic acid], the Papp A→B at 90 min, 10 µM is > 1 ×10⁻⁶ cm/s. As for `O=C(O)C[C@H](NC(=O)CNC(=O)c1cc(NC2=NCC(F)CN2)c2cn[nH]c2c1)c1cc(OC(F)F)ccc1F` (stereo partly drawn) [28-(b), (3S)-3-(5-(difluoromethoxy)-2-fluorophenyl)-3-(2-(4-((5-fluoro-1,4,5,6-tetrahydropyrimidin-2-yl)amino)-1H-indazole-6-carboxamido)acetamido)propanoic acid], the Papp A→B at 90 min, 10 µM was > 1 ×10⁻⁶ cm/s.
